Drawing on publication PMC12915204, “A Cold Stress‐Activated Endocrine Sentinel Chemical Hormone Promotes Insect Survival via Mitochondrial Adaptations Through the Adipokinetic Hormone Receptor” (Advanced Science, 2025), this text covers Kd and calcium mobilization (Fluo-4 imaging) in AKHR-expressing S2 cells, dose-response to AKH; no response with an empty vector for two substances.

Test [1] has as its system T1, adipokinetic hormone receptor (AKHR).
T1 construct: GFP-tagged AKHR in S2 cell lysate (AKHR-GFP fusion protein)
Description: Microscale thermophoresis with AKHR-GFP in S2 cell lysate; supported by calcium imaging in AKHR-expressing S2 cells ([…] asc-C9). Format: binding, Monochamus alternatus.

In test [2] the target is adipokinetic hormone receptor (AKHR) of Monochamus alternatus, overexpressed in Drosophila S2 cells (Monochamus alternatus).

What is called Kd is the equilibrium constant for the complex coming apart. Take asc-C9: the Kd in test [1] was found to be 272 µM. As to “M. alternatus AKH peptide (adipokinetic hormone)”, in test [2], the calcium mobilization (Fluo-4 imaging) in AKHR-expressing S2 cells, dose-response to AKH; no response with an empty vector stood at 30 nM.
